Assay results reported in US20230346827A1 (priority 2020, published 2023).

Legend:
human primary cells = experiment: BioMAP Diversity PLUS panel (12 human primary cell-based systems)
Method: Four concentrations of LMW-DS (ILB®, Tikomed AB, Viken, Sweden, WO 2016/076780; 150 nM, 440 nM, 1.3 µM, 4 µM) were investigated in the BioMAP® Diversity PLUS panel by Eurofins.
Human primary cells in BioMAP systems are used at early passage (passage 4 or earlier) to minimize adaptation to cell culture conditions and preserve physiological signaling responses. All cells are from a pool of multiple donors (n = 2 - 6), commercially purchased and handled according to the recommendations of the manufacturers. Human blood derived CD14+ monocytes are differentiated into macrophages in vitro before being added to the Mphg system. Abbreviations are used as follows: Human umbilical vein endothelial cells (HUVEC), Peripheral blood mononuclear cells (PBMC), Human neonatal dermal fibroblasts (HDFn), B cell receptor (BCR), T cell receptor (TCR) and Toll-like receptor (TLR).
Cell types and stimuli used in each system are as follows: 3C system [HUVEC + (IL-1β, TNFα and IFNy)], 4H system [HUVEC + (IL-4 and histamine)], LPS system [PBMC and HUVEC + LPS (TLR4 ligand)], SAg system [PBMC and HUVEC + TCR ligands], BT system [CD19+ B cells and PBMC + (α-IgM and TCR ligands)], BF4T system [bronchial epithelial cells and HDFn + (TNFα and IL-4)], BE3C system [bronchial epithelial cells + (IL-1β, TNFα and IFNy)], CASM3C system [coronary artery smooth muscle cells + (IL-1 β, TNFα and IFNy)], HDF3CGF system [HDFn + (IL-1β, TNFα, IFNy, EGF, bFGF and PDGF-BB)], KF3CT system [keratinocytes and HDFn + (IL-1β, TNFα, IFNy and TGFβ)], MyoF system [differentiated lung myofibroblasts + (TNFα and TGFβ)] and Mphg system [HUVEC and M1 macrophages + Zymosan (TLR2 ligand)].
Systems are derived from either single cell types or co-culture systems. Adherent cell types are cultured in 96 or 384-well plates until confluence, followed by the addition of PBMC (SAg and LPS systems). The BT system consists of CD19+ B cells co-cultured with PBMC and stimulated with a BCR activator and low levels of TCR stimulation. […] Each plate contains drug controls (e.g., legacy control test agent colchicine at 1.1 µM), negative controls (e.g., non-stimulated conditions) and vehicle controls (e.g., 0.1% DMSO) appropriate for each system. Direct ELISA is used to measure biomarker levels of cell-associated and cell membrane targets. Soluble factors from supernatants are quantified using either HTRF® detection, bead-based multiplex immunoassay or capture ELISA. Overt adverse effects of test agents on cell proliferation and viability (cytotoxicity) are detected by sulforhodamine B (SRB) staining, for adherent cells, and alamarBlue® reduction for cells in suspension. For proliferation assays, individual cell types are cultured at subconfluence and measured at time points optimized for each system (48-hrs: 3C and CASM3C systems; 72-hrs: BT and HDF3CGF systems; 96-hrs: SAg system). Cytotoxicity for adherent cells is measured by SRB (24-hrs: 3C, 4H, LPS, SAg, BF4T, BE3C, CASM3C, HDF3CGF, KF3CT, and Mphg systems; 48-hrs: MyoF system), and by alamarBlue staining for cells in suspension (24-hrs: SAg system; 42-hrs: BT system) at the time points indicated.
Biomarker measurements in a test agent-treated sample are divided by the average of control samples (at least 6 vehicle controls from the same plate) to generate a ratio that is then log10 transformed. Significance prediction envelopes are calculated using historical vehicle control data at a 95% confidence interval.
Biomarker activities are annotated when 2 or more consecutive concentrations change in the same direction relative to vehicle controls, are outside of the significance envelope and have at least one concentration with an effect size > 20% (|log10 ratio| > 0.1). Biomarker key activities are described as modulated if these activities increase in some systems, but decrease in others. […]

ALS patients = experiment: ALSFRS-R / clinical observation in ALS patients (Example 15); assay type: in vivo, human; details: five-week treatment period
Method: Dextran sulfate (Tikomed AB, Viken, Sweden, WO 2016/076780) was administered at 1 mg/kg by […] subcutaneous injection once a week for five weeks to 13 human patients suffering from ALS.
ALSFRS-R was assessed pre-treatment and weekly thereafter for the 5 treatment weeks and for the visits at the follow-up period.

sodium salt of dextran sulfate [LMW-DS]
annotated readouts (human primary cells; 150 nM, 440 nM, 1.3 µM, 4 µM): 25
cytotoxicity for human primary cells (human primary cells; at the concentrations tested (150 nM - 4 µM)): not cytotoxic
thrombomodulin (TM) (human primary cells; hemostasis-related activity): increased
CD69 (human primary cells; immunomodulatory activity): increased
M-CSF (human primary cells; immunomodulatory activity): decreased
secreted immunoglobulin G (sIgG) (human primary cells; immunomodulatory activity): decreased
soluble IL-17A (sIL-17A) (human primary cells; immunomodulatory activity): increased
Eotaxin 3 (Eot3) (human primary cells; inflammation-related activity): increased
I-TAC (human primary cells; inflammation-related activity): decreased
IL-8 (human primary cells; inflammation-related activity): increased
IP-10 (human primary cells; inflammation-related activity): decreased
MCP-1 (human primary cells; inflammation-related activity): decreased
MIG (human primary cells; inflammation-related activity): decreased
VCAM-1 (human primary cells; inflammation-related activity): decreased
sTNFα (human primary cells; inflammation-related activity): decreased
EGFR (human primary cells; tissue remodeling activity): increased
MMP-1 (human primary cells; tissue remodeling activity): increased
PAI-1 (human primary cells; tissue remodeling activity): increased
uPAR (human primary cells; tissue remodeling activity): increased
antiproliferative effect on human primary endothelial cells (human primary cells; top concentration only (4 µM)): modestly and selectively antiproliferative
severe bulbar paresis (two patients) (ALS patients): almost complete resolution
